# How the values were obtained:
# [1] = average particle size and polydispersity index by dynamic light scattering; format: physicochemical; settings: Fluc mRNA-loaded lipid nanoparticles
# Description: The average particle size (number average value), ζ-average particle size, and polydispersity index (PdI) of the lipid nanoparticles in PBS(-) (pH 7.4), and the zeta potential in 10 mM HEPES buffer (pH 7.4) were measured using an analyzer "Zetasizer Nano ZS ZEN3600" (manufactured by Malvern) utilizing dynamic light scattering.
# [2] = encapsulation rate of lipid nanoparticles (RiboGreen); format: physicochemical; settings: Fluc mRNA-loaded lipid nanoparticles
# Description: The encapsulation rate of the lipid nanoparticles was determined by measuring the amount of encapsulated nucleic acid (mRNA) using RiboGreen (manufactured by Life Technologies), which is an RNAintercalator. The amount of mRNA was quantified based on a calibration curve prepared from a dilution series solution of mRNA at a known concentration.
# Specifically, 10 mM HEPES buffer (pH 7.4), 10 w/v% Triton X-100, and RiboGreen were mixed at 978.8 µL, 20 µL, and 1.25 µL per 10 wells, respectively, to obtain a Triton(+) buffer. A Triton(-) buffer was obtained in replacing Triton X-100 with 10 mM HEPES buffer (pH 7.4). 100 µL/well of the sample was added to a black 96-well plate for fluorescence measurement, and 100 µL/well of Triton(+) buffer or Triton(-) buffer was added. After the plate was gently shaken on a shaking incubator (SI-300, manufactured by AS ONE) (700 rpm, 30 seconds), the fluorescence intensity of each well was measured using a microplate reader (VARIOSKAN LUX, manufactured by Thermo Fisher Scientific) (wavelength Ex/Em=500 nm/525 nm), and the nucleic acid encapsulation rate (%) was calculated.
# BALB/c mice = assay: Fluc activity in tissues of mice administered with Fluc mRNA-loaded lipid nanoparticles; format: in vivo; settings: for luciferase activity in the heart compared with control mice (CL4F6-containing lipid nanoparticles) / luciferase activity in the muscle compared with control mice (CL4F6-containing lipid nanoparticles) / luciferase activity in the spleen compared with control mice (CL4F6-containing lipid nanoparticles) / luciferase activity in the lung compared with control mice (CL4F6-containing lipid nanoparticles): TOT/DSPC/chol/PEG-DMG=65/15/20/1.5, control CL4F6/DSPC/chol/PEG-DMG=50/10/40/1.5 (mol%)
# Description: Lipid nanoparticles were administered to mice by intravenous injection into the tail vein using a 27G needle. Unless otherwise specified, BALB/c mice (4 to 5 weeks old, female) were used.
# First, BALB/c mice (female, 4 weeks old) were intravenously injected with lipid nanoparticles encapsulating Fluc mRNA (Fluc mRNA-loaded lipid nanoparticles) at a dose of 0.01 mg mRNA/kg. Six hours after intravenous injection, the mice were euthanized, each tissue was collected, frozen in liquid nitrogen, and stored at -80°C. The tissues were homogenized in passive lysis buffer (manufactured by Promega) using a bead-type cell disruptor (Micro Smash MS-100R, manufactured by TOMY Seiko). Tissue debris was removed by centrifugation, and the supernatant was collected. Fluc activity in the supernatant was measured using the Luciferase Assay System (E1500, manufactured by Promega) according to the manufacturer's protocol. Luminescence was measured using a luminometer (Luminescencer-PSN, manufactured by ATTO). Protein concentration was determined using a commercially available assay kit (BCA Protein Assay Kit, manufactured by Pierce). Fluc activity was expressed as relative light units (RLU) per mg of protein.
# Specifically, first, each lipid nanoparticle was intravenously administered into the tail vein of mice in an amount of 0.2 mg/kg of Fluc mRNA, and 6 hours after administration of the lipid nanoparticles, about 50 mg each of the liver, spleen, lung, heart, brain, and muscle was collected and stored frozen. 500 µL of passive lysis buffer (manufactured by Promega) was added to each tube containing the collected organ. The liver was homogenized at 4000 rpm for 20 seconds twice, the spleen, kidney, lung, and heart were homogenized at 5000 rpm for 20 seconds twice, and the muscle was homogenized at 5000 rpm for 20 seconds four times; then, the homogenate was centrifuged at 13000 rpm at 4°C for 10 minutes, and the supernatant was collected as a sample for measurement. The liver and spleen were diluted 100 times with passive lysis buffer. 50 µL of a measurement sample (tissue supernatant) was mixed with 50 µL of luciferase assay buffer of the Luciferase Assay System (E1500, manufactured by Promega) previously added in a test tube by pipetting, and the amount of luminescence was measured with a luminometer. Protein concentration was determined using a commercially available assay kit (BCA Protein Assay Kit, manufactured by Pierce). Fluc activity was expressed as relative light units (RLU) per mg of protein.
# [3] = TOT/DSPC/chol/PEG-DMG=65/15/20/1.5 (mol%)
# [4] = TOT-4/DSPC/chol/PEG-DMG=65/15/20/1.5, CL4F6/DSPC/chol/PEG-DMG=50/10/40/1.5 (mol%)
# [5] = Example 16, TOT/DSPC/chol/PEG-DMG=65/15/20/1.5 (mol%), i.v. tail vein
# [6] = Example 15, TOT-4/PC/chol/PEG-DMG=65/15/20/1 (mol%), PC = DSPC, i.v. tail vein
molecule,measurement,setting,value
"CCCCCCCC/C=C\CCCCCCCC(=O)OCC(COC(=O)CCCCCCC/C=C\CCCCCCCC)(COC(=O)CCCCCCC/C=C\CCCCCCCC)NC(=O)CCN(C)CC [TOT-16, 2-(3-(ethyl(methyl)amino)propanamido)-2-((oleoyloxy)methyl)propane-1,3-diyl dioleate]",PdI,[1]; [3],0.180
same,ζ-Average Particle Size,[1]; [3],99.2 nm
same,Encapsulation Rate,[2]; [3],87.6%
same,luciferase activity in the heart compared with control mice (CL4F6-containing lipid nanoparticles),"BALB/c mice; Example 33, i.v. tail vein",higher
same,luciferase activity in the muscle compared with control mice (CL4F6-containing lipid nanoparticles),"BALB/c mice; Example 33, i.v. tail vein",higher
same,luciferase activity in the spleen compared with control mice (CL4F6-containing lipid nanoparticles),"BALB/c mice; Example 33, i.v. tail vein",higher
"7-(4-(diisopropylamino)butyl)-13-((2-hexylnonanoyl)oxy)-7-hydroxytridecyl 2-hexyldecanoate [CL4F6, reference compound]",Number Average Particle Size,[1]; [4],59.4 nm
same,PdI,[1]; [4],99.0
same,ζ-Average Particle Size,[1]; [4],90.7 nm
"CCCCCCCC/C=C\CCCCCCCC(=O)OCC(COC(=O)CCCCCCC/C=C\CCCCCCCC)(COC(=O)CCCCCCC/C=C\CCCCCCCC)NC(=O)CN [TOT-6, 2-(2-aminoacetamido)-2-((oleoyloxy)methyl)propane-1,3-diyl dioleate]",PdI,[1]; [3],0.190
same,ζ-Average Particle Size,[1]; [3],102.5 nm
same,Encapsulation Rate,[2]; [3],95.4%
"CCCCCCCC/C=C\CCCCCCCC(=O)OCC(COC(=O)CCCCCCC/C=C\CCCCCCCC)(COC(=O)CCCCCCC/C=C\CCCCCCCC)NC(=O)C1CCN(C)CC1 [TOT-3, 2-(1-methylpiperidine-4-carboxamide)-2-((oleoyloxy)methyl)propane-1,3-diyl dioleate]",PdI,[1]; [3],0.344
same,ζ-Average Particle Size,[1]; [3],167.2 nm
same,Encapsulation Rate,[2]; [3],92.3%
same,luciferase activity in the lung compared with control mice (CL4F6-containing lipid nanoparticles),"BALB/c mice; Example 33, i.v. tail vein",higher
"CCCCCCCC/C=C\CCCCCCCC(=O)OCC(COC(=O)CCCCCCC/C=C\CCCCCCCC)(COC(=O)CCCCCCC/C=C\CCCCCCCC)NC(=O)C1CCN(C)C1 (stereo not shown) [TOT-20, 2-(1-methylpyrrolidine-3-carboxamide)-2-((oleoyloxy)methyl)propane-1,3-diyl dioleate]",PdI,[1]; [3],0.263
same,ζ-Average Particle Size,[1]; [3],201.8 nm
same,Encapsulation Rate,[2]; [3],94.7%
"CCCCCCCC/C=C\CCCCCCCC(=O)OCC(COC(=O)CCCCCCC/C=C\CCCCCCCC)(COC(=O)CCCCCCC/C=C\CCCCCCCC)NC(=O)C1CCN(C(C)C)CC1 [TOT-19, 2-(1-isopropylpiperidine-4-carboxamide)-2-((oleoyloxy)methyl)propane-1,3-diyl dioleate]",PdI,[1]; [3],0.261
same,ζ-Average Particle Size,[1]; [3],142.6 nm
same,Encapsulation Rate,[2]; [3],92.2%
same,luciferase activity in the heart compared with control mice (CL4F6-containing lipid nanoparticles),"BALB/c mice; Example 33, i.v. tail vein",very high
same,luciferase activity in the lung compared with control mice (CL4F6-containing lipid nanoparticles),"BALB/c mice; Example 33, i.v. tail vein",highest
same,luciferase activity in the muscle compared with control mice (CL4F6-containing lipid nanoparticles),"BALB/c mice; Example 33, i.v. tail vein",very high
"CCCCCCCC/C=C\CCCCCCCC(=O)OCC(COC(=O)CCCCCCC/C=C\CCCCCCCC)(COC(=O)CCCCCCC/C=C\CCCCCCCC)NC(=O)CCCN(C)C [TOT-2, 2-(4-(dimethylamino)butanamido)-2-((oleoyloxy)methyl)propane-1,3-diyl dioleate]",PdI,[1]; [3],0.347
same,ζ-Average Particle Size,[1]; [3],166.2 nm
same,Encapsulation Rate,[2]; [3],92.3%
same,Fluc activity (RLU/mg protein) in the liver,BALB/c mice; [5],confirmed in the liver in all the mice except for those administered with Fluc mRNA-loaded lipid nanoparticles using TOT-2
same,luciferase activity in the lung compared with control mice (CL4F6-containing lipid nanoparticles),"BALB/c mice; Example 33, i.v. tail vein",higher
"CCCCCCCC/C=C\CCCCCCCC(=O)OCC(COC(=O)CCCCCCC/C=C\CCCCCCCC)(COC(=O)CCCCCCC/C=C\CCCCCCCC)NC(=O)CCN(C)C [TOT-1, 2-(3-(dimethylamino)propanamido)-2-((oleoyloxy)methyl)propane-1,3-diyl dioleate]",PdI,[1]; [3],0.324
same,ζ-Average Particle Size,[1]; [3],138.0 nm
same,Encapsulation Rate,[2]; [3],85.9%
"CCCCCCCC/C=C\CCCCCCCC(=O)OCC(COC(=O)CCCCCCC/C=C\CCCCCCCC)(COC(=O)CCCCCCC/C=C\CCCCCCCC)NC(=O)CCN(CC)CC [TOT-4, 2-(3-(diethylamino)propanamido)-2-((oleoyloxy)methyl)propane-1,3-diyl dioleate]",PdI,[1]; [3],0.157
same,ζ-Average Particle Size,[1]; [3],134.3 nm
same,Number Average Particle Size,[1]; [4],33.5 nm
same,ζ-Average Particle Size,[1]; [4],134.3 nm
same,Encapsulation Rate,[2]; [3],83.5%
same,Encapsulation Rate,[2]; [4],0.157%
same,Fluc activity (RLU/mg protein) in the liver and spleen,"BALB/c mice; Example 13, TOT/DOPE/chol/PEG-DMG=60/15/25/1.0 (mol%), i.v. tail vein",very high
same,Fluc activity in the spleen compared with the liver,"BALB/c mice; Example 15, TOT-4/PC/chol/PEG-DMG=65/15/20/1 (mol%), PC = DPPC, i.v. tail vein",higher Fluc activity in the spleen than in the liver
same,Fluc activity (RLU/mg protein) in the liver and spleen,"BALB/c mice; Example 15, TOT-4/PC/chol/PEG-DMG=65/15/20/1 (mol%), PC = DSPC, DPPC, POPC, or DOPC, i.v. tail vein",confirmed
same,Fluc activity (RLU/mg protein) in the liver,BALB/c mice; [6],relatively suppressed
same,Fluc activity in the spleen compared with the liver,BALB/c mice; [6],higher Fluc activity in the spleen than in the liver
same,Fluc activity (RLU/mg protein) in the spleen,BALB/c mice; [5],very high
same,"gene expression in the spleen, times higher than Fluc mRNA-loaded lipid nanoparticles using RNA-LPX","BALB/c mice; Example 17, TOT-4/DSPC/chol/PEG-DMG=65/15/20/1.5 (mol%) versus RNA-LPX (DOTMA/DOPE=50/50 mol%), i.v. tail vein",24 times
same,gene expression in the spleen and liver,"BALB/c mice; Example 18, TOT-4/DSPC/chol/PEG-DMG=65/15/20/1.5 (mol%), similar to CL4F6/DSPC/chol/PEG-DMG=50/10/40/1.5, i.v. tail vein",high
same,"luciferase activity in the spleen, lung, brain, heart, and muscle compared with CL4F6-containing lipid nanoparticles","BALB/c mice; Example 19, TOT-4/DSPC/chol/PEG-DMG=65/15/20/1.5 versus CL4F6/DSPC/chol/PEG-DMG=50/10/40/1.5 (mol%), i.v. 0.2 mg/kg of Fluc mRNA, 6 hours, N=3",higher
same,luciferase activity in the brain,"BALB/c mice; Example 33, TOT/DSPC/chol/PEG-DMG=65/15/20/1.5 (mol%), i.v. tail vein",remarkably high
same,luciferase activity in the heart compared with control mice (CL4F6-containing lipid nanoparticles),"BALB/c mice; Example 33, i.v. tail vein",very high
same,luciferase activity in the lung compared with control mice (CL4F6-containing lipid nanoparticles),"BALB/c mice; Example 33, i.v. tail vein",higher
same,luciferase activity in the muscle compared with control mice (CL4F6-containing lipid nanoparticles),"BALB/c mice; Example 33, i.v. tail vein",very high
same,luciferase activity in the spleen compared with control mice (CL4F6-containing lipid nanoparticles),"BALB/c mice; Example 33, i.v. tail vein",higher
"CCCCCCCC/C=C\CCCCCCCC(=O)OCC(COC(=O)CCCCCCC/C=C\CCCCCCCC)(COC(=O)CCCCCCC/C=C\CCCCCCCC)NC(=O)C1CCN(CC)CC1 [TOT-18, 2-(1-ethylpiperidine-4-carboxamide)-2-((oleoyloxy)methyl)propane-1,3-diyl dioleate]",PdI,[1]; [3],0.319
same,ζ-Average Particle Size,[1]; [3],130.0 nm
same,Encapsulation Rate,[2]; [3],92.2%
same,luciferase activity in the lung compared with control mice (CL4F6-containing lipid nanoparticles),"BALB/c mice; Example 33, i.v. tail vein",higher
same,luciferase activity in the muscle compared with control mice (CL4F6-containing lipid nanoparticles),"BALB/c mice; Example 33, i.v. tail vein",very high
"CCCCCCCC/C=C\CCCCCCCC(=O)OCC(COC(=O)CCCCCCC/C=C\CCCCCCCC)(COC(=O)CCCCCCC/C=C\CCCCCCCC)NC(=O)[C@@H](N)CO [TOT-8, 2-((S)-2-amino-3-hydroxypropanamido)-2-((oleoyloxy)methyl)propane-1,3-diyl dioleate]",PdI,[1]; [3],0.213
same,ζ-Average Particle Size,[1]; [3],87.1 nm
same,Encapsulation Rate,[2]; [3],85.7%

# From patent EP4559896A1, “PH-SENSITIVE CATIONIC LIPID AND LIPID NANOPARTICLE” (National University Corporation Hokkaido University, priority 2022, dated 2024)
